One experiment concerns T1, Dopamine, D1 (h).
T1 construct: Caliper Lifescience
Briefly: Radio-ligand binding assay, Dopamine D1. As to conditions: 10 μM l-THBr. More on the design: species or system human. How it is done:
(§1) To determine the possible targets of l-THBr action, the binding affinities of l-THBr to neurotransmitter receptors known to be involved in sedation, hypnosis and anxiety were investigated. Radio-ligand binding assays were performed by Caliper Lifescience (Hopkinton, MA, USA). The screening was carried out at a concentration of 10 μM l–THBr to test its ability to inhibit the binding of radioligands to their corresponding receptors. The results were expressed as percentage of inhibition of labeled ligand binding to individual receptors. Significant binding activity was defined as ≥50%.

A further experiment has as its system T2, Dopamine, D2s (h).
T2 construct: Caliper Lifescience
Briefly: Radio-ligand binding assay, Dopamine D2s. More on the design: species or system human. The following applies: 10 μM l-THBr. As to the method:
as §1

The subject of the next experiment is T3, Dopamine, D4.4 (h).
T3 construct: Caliper Lifescience
Put plainly: Radio-ligand binding assay, Dopamine D4.4. Set-up: species or system human. The following applies: 10 μM l-THBr. As to the method:
as §1

The subject of experiment [1] is T4, GABA A, BDZ, Alpha 1 site.
T4 construct: Caliper Lifescience
Briefly: Radio-ligand binding assay, GABA A BDZ alpha 1 site. As to conditions: 10 μM l-THBr; radioligand [3H]Flunitrazepam. As to the method:
as §1

Experiment [2] concerns Glutamate, AMPA Site (Ionotropic). Put plainly: Radio-ligand binding assay, Glutamate AMPA site. The following applies: 10 μM l-THBr; radioligand [3H]AMPA. As to the method:
as §1

In experiment [3] the test system is Glutamate, Kainate Site (Ionotropic). Briefly: Radio-ligand binding assay, Glutamate Kainate site. The following applies: 10 μM l-THBr; radioligand [3H]Kainic acid. As to the method: as §1
The subject of experiment [4] is Glutamate, NMDA Agonist Site (Ionotropic). Briefly: Radio-ligand binding assay, Glutamate NMDA agonist site. The following applies: 10 μM l-THBr; radioligand [3H]CGP 39653. As to the method: as §1
Experiment [5] has as its system Glutamate, NMDA, Phencyclidine Site (Ionotropic). Briefly: Radio-ligand binding assay, Glutamate NMDA phencyclidine site. As to conditions: 10 μM l-THBr; radioligand [3H]TCP. As to the method: as §1
The next experiment relates to T5, Serotonin, 5HT1A (h).
T5 construct: Caliper Lifescience
Put plainly: Radio-ligand binding assay, Serotonin 5HT1A. More on the design: species or system human. The following applies: 10 μM l-THBr. As to the method:
as §1

The subject of a further experiment is T6, Serotonin, 5HT2C.
T6 construct: Caliper Lifescience
Briefly: Radio-ligand binding assay, Serotonin 5HT2C. As to conditions: 10 μM l-THBr; radioligand [3H]Mesulergine. As to the method:
as §1

The subject of a further experiment is T7, Serotonin, 5HT3.
T7 construct: Caliper Lifescience
Briefly: Radio-ligand binding assay, Serotonin 5HT3. The following applies: 10 μM l-THBr; radioligand [3H]GR 65630. How it is done:
as §1

The next experiment deals with T8, Serotonin, 5HT4.
T8 construct: Caliper Lifescience
Put plainly: Radio-ligand binding assay, Serotonin 5HT4. As to conditions: 10 μM l-THBr; radioligand [3H] 113808. How it is done: as §1

Another experiment has as its system T9, Serotonin, 5HT6 (h).
T9 construct: Caliper Lifescience
Put plainly: Radio-ligand binding assay, Serotonin 5HT6. More on the design: species or system human. The following applies: 10 μM l-THBr; radioligand [3H]-LSD. How it is done: as §1

Another experiment deals with D1 receptor (Homo sapiens, UniProt P21728). Put plainly: cAMP assay for D1 receptor activity in CHO cells. In kind it is cell-based. The source says:
Dopamine receptors can be categorized into two classes: Gαs protein coupled receptors (D1 and D5), or Gαi protein coupled receptors (D2, D3, and D4). Activation of D1 receptors can excite adenylate cyclase activity and increase cyclic adenosine monophosphate (cAMP). cAMP assays were used to determine the agonist or antagonist properties of l-THBr at the dopamine D1 receptor.
CHO K1 cells stably expressing D1 receptors were purchased from Genscript (Catalogue Number: M00247, Gene Number NM_000794). The cells were seeded in Ham’s F12 containing 10% fetal bovine serum and 200 μg/ml zeocin. On the day of the assay, 5 μl of cell suspension (3000 cells) was seeded on a 384-well plate. The assay was performed according to the manufacturer’s instructions. To test for agonist effects at the D1 receptor, the compounds (a known D1 agonist […] or l-THBr) were added from stocks two-fold more concentrated than the final concentration. […] After incubation (30 min at room temperature), 10 μL of HTRF reagents (cAMP-XL665 and anti-cAMP cryptate) were added. The signal was quantified after one hour of incubation at room temperature. The fluorescence intensity ratio (A665nm/A620nm x10^4) was calculated.
On the technique in general: Cyclic AMP is a second messenger, typically raised through Gs and lowered through Gi signalling.

The test system of experiment [6] is male CD-1 ICR mice. Put plainly: Locomotor activity test. It counts as in vivo. As to conditions: l-THBr 1, 5, or 10 mg/kg, i.p., 60 min. The source says: The spontaneous activity video analysis system consists of 8 sound-attenuated chambers (40 cm × 40 cm × 65 cm) with a built-in infrared camera. (JL Behave, Shanghai Ji-Liang Software Technology Co., Ltd). During the behavioral tests, the experimenter was outside the testing room, and the chambers were cleaned between successive runs. Forty male CD-1 ICR mice were allowed to acclimate for three days in home cages and were handled for another three days to minimize stress after arrival in the animal facility. On the following day, after habituation to the activity chambers for 60 min, mice were administered vehicle, diazepam (DZP, 2 mg/kg, i.p.) or l–THBr (1, 5, or 10 mg/kg, i.p.) and immediately placed into the test chambers to record their locomotor activity for 60 min.

Experiment [7] deals with male CD-1 ICR mice. Put plainly: Light-dark box test. The following applies: l-THBr 1 or 5 mg/kg i.p., 30 min before test, P < 0.05 vs vehicle. In kind it is in vivo. The source says: The light-dark box test is a sensitive model to detect activity in disorders related to anxiety, based on the innate aversion of rodents to brightly lit areas and on their spontaneous exploratory behavior in response to a novel environment. The light-dark transition box is a polypropylene animal cage (44 cm × 21 cm × 21 cm), which is divided into two compartments, a light box (illuminated by a 60 W light source with 1000 lx light intensity) and a dark box. Forty-eight male CD-1 ICR mice were placed in the light box 30 min after l–THBr or DZP injection and allowed to move freely to both boxes for 5 min. The number of transitions between the two boxes were recorded by a video camera.

“And” between values parts separate entries of the source, which are not always exact repeats. Equal values may be shown once.

Sequence of D1 receptor (P21728 whole entry): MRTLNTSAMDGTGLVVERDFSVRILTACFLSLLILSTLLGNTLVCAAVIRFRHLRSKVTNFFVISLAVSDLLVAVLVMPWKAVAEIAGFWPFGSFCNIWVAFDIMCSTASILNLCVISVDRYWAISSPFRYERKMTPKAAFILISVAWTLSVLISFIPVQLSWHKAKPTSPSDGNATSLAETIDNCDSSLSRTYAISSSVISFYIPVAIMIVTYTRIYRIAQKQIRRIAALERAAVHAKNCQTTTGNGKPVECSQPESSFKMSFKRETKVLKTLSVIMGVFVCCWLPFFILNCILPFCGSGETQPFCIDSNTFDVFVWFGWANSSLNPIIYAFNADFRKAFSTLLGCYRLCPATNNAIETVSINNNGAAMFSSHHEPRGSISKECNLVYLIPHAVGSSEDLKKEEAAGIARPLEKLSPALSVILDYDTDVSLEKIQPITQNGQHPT

For the molecule `COc1ccc2c(c1O)CN1CCc3cc4c(cc3[C@@H]1C2)OCO4` [l-THBr, levo-tetrahydroberberrubine], the Activity result in the experiment with Dopamine, D1 (h) is “Yes (Significant binding affinity of l-THBr was defined as greater than 50% inhibition of ligand binding)”; with Dopamine, D2s (h), “Yes (Significant binding affinity of l-THBr was defined as greater than 50% inhibition of ligand binding)”; with Dopamine, D4.4 (h), “Yes (Significant binding affinity of l-THBr was defined as greater than 50% inhibition of ligand binding)”; with Serotonin, 5HT1A (h), “Yes (Significant binding affinity of l-THBr was defined as greater than 50% inhibition of ligand binding)”. In addition, the Average inhibition percentage with Dopamine, D1 (h) (radioligand [3H]-SCH23390) is 100.6% and 100.61%; with Dopamine, D2s (h) (radioligand [3H]-Raclopride), 98.41% and 96.43%; in the experiment on Dopamine, D4.4 (h) (radioligand [3H]-YM-09151-2), 79.55%; in experiment [1] it was -3.30%; in experiment [2] it was 0.31%; in [3], -0.89%. For the same molecule, the Average inhibition percentage in [4] is given as 4.79%; in experiment [5] it was -12.74%; with Serotonin, 5HT1A (h) (radioligand [3H]-8-OH-DPAT), 78.31%; in the experiment on Serotonin, 5HT2C, 30.65%; with Serotonin, 5HT3, 23.02%; in the experiment on Serotonin, 5HT4 it was 32.84%. The Average inhibition percentage with Serotonin, 5HT6 (h) came to 22.79%. Besides, at D1 receptor, it took 361 nM to reach half-maximal inhibition (IC50). For the same molecule, the “dose-dependent increase in cAMP production (agonist effect)” value at D1 receptor (CHO cells stably expressing the D1 receptor, agonist test) is given as “but not l-THBr induced a dose-dependent increase”. Besides, the inhibition at 10 µM on D1 receptor (CHO, read-out: maximum inhibition of cAMP production) amounted to 98.8%. In the experiment with male CD-1 ICR mice [6], the “influence on locomotor activity (travel distance)” value is “no influence”. The “number of transitions between the light/dark sides” value in the experiment on male CD-1 ICR mice [7] is given as “increased”.

For orientation: IC50 means the concentration at which inhibition is half-maximal. A high value points to weaker potency in that assay. A word on the inhibition: it is how much of the control response was suppressed.

These data come from publication PMC5234788 (PLoS ONE, 2017).
